Test results from patent US9884063B2, “Amido-substituted azole compounds” (Bayer Pharma Aktiengesellschaft, priority 2014, dated 2018).

Columns and labels:
[1] = system: wildtype Wnt signaling cascade; test: HEK293 TOP Assay (Super TopFlash luciferase reporter, Wnt-3a stimulated); assay type: cell-based; details: Homo sapiens, HEK293, 16 h
Method in brief: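 HEK293 cells stably carrying Super TopFlash (TOP) or FOP reporter, stimulated with recombinant human Wnt-3a (2500–5 ng/ml, two-fold steps). Both lines incubated in parallel with compound from 50 μM to 15 nM (3.16-fold) in CAFTY buffer pH 7.4 with 2 mM Ca2+ and 0.01% BSA; selectivity judged TOP vs FOP.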

TNKS2 = target: T1, TNKS2 (Homo sapiens, UniProt Q9H2K2); test: Modified TNKS2 Assay 2 (auto-parsylation, [3H]-NAD+ SPA); assay type: biochemical; details: 6 nM TNKS2, 96 well
T1 sequence (Q9H2K2 1-1166): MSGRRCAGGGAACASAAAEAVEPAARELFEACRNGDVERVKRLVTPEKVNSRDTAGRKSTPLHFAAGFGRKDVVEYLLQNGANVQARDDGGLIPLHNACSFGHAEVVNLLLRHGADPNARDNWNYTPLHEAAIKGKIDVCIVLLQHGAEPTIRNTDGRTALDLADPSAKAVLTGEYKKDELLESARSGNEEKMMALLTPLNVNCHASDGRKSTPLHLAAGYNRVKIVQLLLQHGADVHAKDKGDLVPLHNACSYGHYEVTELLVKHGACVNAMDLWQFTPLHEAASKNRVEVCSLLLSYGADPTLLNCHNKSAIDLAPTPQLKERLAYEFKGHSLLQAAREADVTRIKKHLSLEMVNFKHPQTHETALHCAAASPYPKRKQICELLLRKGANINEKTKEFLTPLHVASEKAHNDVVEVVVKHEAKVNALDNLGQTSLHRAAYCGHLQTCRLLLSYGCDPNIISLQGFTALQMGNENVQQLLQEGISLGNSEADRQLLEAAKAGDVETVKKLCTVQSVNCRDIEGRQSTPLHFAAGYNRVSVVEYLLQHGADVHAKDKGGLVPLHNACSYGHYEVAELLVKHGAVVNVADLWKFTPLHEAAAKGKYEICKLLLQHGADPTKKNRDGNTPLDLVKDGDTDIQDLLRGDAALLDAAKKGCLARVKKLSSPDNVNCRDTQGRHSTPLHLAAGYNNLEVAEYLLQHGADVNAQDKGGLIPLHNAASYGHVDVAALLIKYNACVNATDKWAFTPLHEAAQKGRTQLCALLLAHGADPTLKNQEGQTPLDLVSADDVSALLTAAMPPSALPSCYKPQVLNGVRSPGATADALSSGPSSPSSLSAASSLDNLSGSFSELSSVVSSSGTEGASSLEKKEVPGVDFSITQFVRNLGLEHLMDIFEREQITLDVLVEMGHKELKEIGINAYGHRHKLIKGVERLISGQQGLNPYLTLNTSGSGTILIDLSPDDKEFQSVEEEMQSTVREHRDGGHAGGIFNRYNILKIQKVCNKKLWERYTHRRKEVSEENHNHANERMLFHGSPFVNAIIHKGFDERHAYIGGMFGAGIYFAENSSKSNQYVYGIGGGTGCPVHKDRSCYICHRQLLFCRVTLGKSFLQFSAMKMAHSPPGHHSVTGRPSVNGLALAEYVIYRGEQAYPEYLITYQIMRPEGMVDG

[2] = HEK293 TOP reporter cell line, Wnt-3a at EC50, 16 hours incubation, compound dilution series 50 μM to 15 nM
[3] = HEK293 TOP reporter cells, Wnt3a at EC50, 16 hours, luciferase

Structure (SMILES)	IC50 [1, 2] [nM]	IC50 (TNKS2) [nM]	IC50 [1, 3] [nM]
COCCNC(=O)c1[nH]cnc1C(=O)Nc1ccc(NC(=O)c2ccc(F)cc2Cl)cc1 [Example 130, N^4-{4-[(2-chloro-4-fluorobenzoyl)amino]phenyl}-N^5-(2-methoxyethyl)-1H-imidazole-4,5-dicarboxamide]	250	70	
CNC(=O)c1nc[nH]c1C(=O)Nc1ccc(NC(=O)c2ncccc2Cl)cc1 [Example 247, N^5-(4-{[(3-chloropyridin-2-yl)carbonyl]amino}phenyl)-N^4-methyl-1H-imidazole-4,5-dicarboxamide]	400	570	
CNC(=O)c1nc[nH]c1C(=O)Nc1ccc(NC(=O)c2ccc(C)cc2Cl)cc1 [Example 244, N^5-{4-[(2-chloro-4-methylbenzoyl)amino]phenyl}-N^4-methyl-1H-imidazole-4,5-dicarboxamide]	170	90	
CNC(=O)c1nc[nH]c1C(=O)Nc1ccc(NC(=O)c2ccncc2Cl)cc1 [Example 6, N^5-{4-[(3-chloroisonicotinoyl)amino]phenyl}-N^4-methyl-1H-imidazole-4,5-dicarboxamide]	230	180	230
CNC(=O)c1nc[nH]c1C(=O)Nc1ccc(NC(=O)c2ccc(OC(F)(F)F)cc2F)cc1 [Example 253, N^5-(4-{[2-fluoro-4-(trifluoromethoxy)benzoyl]amino}phenyl)-N^4-methyl-1H-imidazole-4,5-dicarboxamide]	12000	> 10000	
O=C(Nc1ccc(NC(=O)c2nc[nH]c2C(=O)NCCCN2CCOCC2)cc1)c1ccccc1Cl [Example 200, N^4-{4-[(2-chlorobenzoyl)amino]phenyl}-N^5-[3-(morpholin-4-yl)propyl]-1H-imidazole-4,5-dicarboxamide]	870	580	
CCOc1ccc(C(=O)Nc2ccc(NC(=O)c3[nH]cnc3C(=O)NC)cc2)c(Cl)c1 [Example 250, N^5-{4-[(2-chloro-4-ethoxybenzoyl)amino]phenyl}-N^4-methyl-1H-imidazole-4,5-dicarboxamide]	920	220	
CC1CCN(CCNC(=O)c2[nH]cnc2C(=O)Nc2ccc(NC(=O)c3ccc(F)cc3)cc2)CC1 [Example 164, N^4-{4-[(4-fluorobenzoyl)amino]phenyl}-N^5-[2-(4-methylpiperidin-1-yl)ethyl]-1H-imidazole-4,5-dicarboxamide]	910	60	
CC(C)(CNC(=O)c1[nH]cnc1C(=O)Nc1ccc(NC(=O)c2ccc(F)cc2)cc1)N1CCCCC1 [Example 209, N^4-{4-[(4-fluorobenzoyl)amino]phenyl}-N^5-[2-methyl-2-(piperidin-1-yl)propyl]-1H-imidazole-4,5-dicarboxamide]	850	460	
CC(CNC(=O)c1[nH]cnc1C(=O)Nc1ccc(NC(=O)c2ccccc2Cl)cc1)N1CCCCC1 (stereo not shown) [Example 182, N^4-{4-[(2-chlorobenzoyl)amino]phenyl}-N^5-[2-(piperidin-1-yl)propyl]-1H-imidazole-4,5-dicarboxamide]	640	10	
CN(C)CCNC(=O)c1[nH]cnc1C(=O)Nc1ccc(NC(=O)c2ccc(F)cc2Br)cc1 [Example 217, N^4-{4-[(2-bromo-4-fluorobenzoyl)amino]phenyl}-N^5-[2-(dimethylamino)ethyl]-1H-imidazole-4,5-dicarboxamide]	120	8	
O=C(Nc1ccc(NC(=O)c2nc[nH]c2C(=O)NC2CCOC2)cc1)c1ccc(F)cc1Cl (stereo not shown) [Example 236, N^4-{4-[(2-chloro-4-fluorobenzoyl)amino]phenyl}-N^5-(tetrahydrofuran-3-yl)-1H-imidazole-4,5-dicarboxamide]	420	60	
CC1CCN(CCNC(=O)c2nc[nH]c2C(=O)Nc2ccc(NC(=O)c3ccc(F)cc3Cl)cc2)CC1 [Example 126, N^5-{4-[(2-chloro-4-fluorobenzoyl)amino]phenyl}-N^4-[2-(4-methylpiperidin-1-yl)ethyl]-1H-imidazole-4,5-dicarboxamide]	40	7	
O=C(Nc1ccc(NC(=O)c2nc[nH]c2C(=O)NCCN2CCCC(F)C2)cc1)c1ccc(F)cc1Cl (stereo not shown) [Example 226, N^4-{4-[(2-chloro-4-fluorobenzoyl)amino]phenyl}-N^5-[2-(3-fluoropiperidin-1-yl)ethyl]-1H-imidazole-4,5-dicarboxamide]	50	2	
CNC(=O)c1nc[nH]c1C(=O)Nc1ccc(NC(=O)c2ccccc2C)cc1 [Example 19, N^4-methyl-N^5-{4-[(2-methylbenzoyl)amino]phenyl}-1H-imidazole-4,5-dicarboxamide]	1150	1800	1250
CNC(=O)c1nc[nH]c1C(=O)Nc1ccc(NC(=O)c2ccc(OC(F)F)cc2F)cc1 [Example 251, N^5-(4-{[4-(difluoromethoxy)-2-fluorobenzoyl]amino}phenyl)-N^4-methyl-1H-imidazole-4,5-dicarboxamide]	7900	> 10000	
O=C(NCCN1CCCCC1)c1nc[nH]c1C(=O)Nc1ccc(NC(=O)c2c(F)cc(F)cc2Cl)cc1 [Example 119, N^5-{4-[(2-chloro-4,6-difluorobenzoyl)amino]phenyl}-N^4-[2-(piperidin-1-yl)ethyl]-1H-imidazole-4,5-dicarboxamide]	70	5	
CNC(=O)c1nc[nH]c1C(=O)Nc1ccc(NC(=O)c2cc(OC)ccc2Cl)cc1 [Example 248, N^5-{4-[(2-chloro-5-methoxybenzoyl)amino]phenyl}-N^4-methyl-1H-imidazole-4,5-dicarboxamide]	850	480	
CNC(=O)c1nc[nH]c1C(=O)Nc1ccc(NC(=O)c2ccc(F)cc2Cl)cc1 [Example 12, N^5-{4-[(2-chloro-4-fluorobenzoyl)amino]phenyl}-N^4-methyl-1H-imidazole-4,5-dicarboxamide]	140	60	150
CC1CCN(CC(C)(C)NC(=O)c2[nH]cnc2C(=O)Nc2ccc(NC(=O)c3ccc(F)cc3Cl)cc2)CC1 [Example 155, N^4-{4-[(2-chloro-4-fluorobenzoyl)amino]phenyl}-N^5-[2-methyl-1-(4-methylpiperidin-1-yl)propan-2-yl]-1H-imidazole-4,5-dicarboxamide]	660	80	
O=C(Nc1ccc(NC(=O)c2nc[nH]c2C(=O)NCCN2CCCCC2)cc1)c1ccc(F)cc1Br [Example 216, N^4-{4-[(2-bromo-4-fluorobenzoyl)amino]phenyl}-N^5-[2-(piperidin-1-yl)ethyl]-1H-imidazole-4,5-dicarboxamide]	20	2	
CC(C)(CN1CCCCC1)NC(=O)c1[nH]cnc1C(=O)Nc1ccc(NC(=O)c2ccccc2Cl)cc1 [Example 171, N^4-{4-[(2-chlorobenzoyl)amino]phenyl}-N^5-[2-methyl-1-(piperidin-1-yl)propan-2-yl]-1H-imidazole-4,5-dicarboxamide]	670	340	
CC(C)(C)CNC(=O)c1[nH]cnc1C(=O)Nc1ccc(NC(=O)c2ccccc2Cl)cc1 [Example 148, N^4-{4-[(2-chlorobenzoyl)amino]phenyl}-N^5-(2,2-dimethylpropyl)-1H-imidazole-4,5-dicarboxamide]	1750	1100	
CNC(=O)c1nc[nH]c1C(=O)Nc1ccc(NC(=O)c2c(Cl)cccc2Cl)cc1 [Example 26, N^5-{4-[(2,6-dichlorobenzoyl)amino]phenyl}-N^4-methyl-1H-imidazole-4,5-dicarboxamide]	1350	1600	800
O=C(Nc1ccc(NC(=O)c2[nH]cnc2C(=O)NCC(F)(F)F)cc1)c1ccc(F)cc1Cl [Example 30, N^4-{4-[(2-chloro-4-fluorobenzoyl)amino]phenyl}-N^5-(2,2,2-trifluoroethyl)-1H-imidazole-4,5-dicarboxamide]	190	40	160
